Assay results published in ChEMBL document CHEMBL1135101, “Combinatorial synthesis of 3-(amidoalkyl) and 3-(aminoalkyl)-2-arylindole derivatives: discovery of potent ligands for a variety of G-protein coupled receptors” (Bioorg Med Chem Lett, 2002).
One block for each compound: values may come before it.

Assays:
[1] = biological target: T1, 5-hydroxytryptamine receptor 2C (Homo sapiens) (UniProt P28335); test: Binding affinity towards 5-hydroxytryptamine 2C receptor
T1 sequence (whole entry): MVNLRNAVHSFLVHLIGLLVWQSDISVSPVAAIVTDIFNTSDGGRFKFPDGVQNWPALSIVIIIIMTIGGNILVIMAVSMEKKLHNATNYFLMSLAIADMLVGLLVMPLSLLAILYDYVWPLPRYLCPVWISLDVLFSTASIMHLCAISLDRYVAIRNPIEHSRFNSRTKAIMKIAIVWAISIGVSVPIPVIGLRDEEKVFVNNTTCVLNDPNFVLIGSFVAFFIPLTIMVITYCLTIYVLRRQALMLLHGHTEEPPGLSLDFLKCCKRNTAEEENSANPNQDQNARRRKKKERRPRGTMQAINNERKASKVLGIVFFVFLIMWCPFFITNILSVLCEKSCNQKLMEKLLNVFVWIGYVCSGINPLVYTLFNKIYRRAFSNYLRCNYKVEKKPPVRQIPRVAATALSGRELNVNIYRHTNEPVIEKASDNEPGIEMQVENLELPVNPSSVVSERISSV

[2] = biological target: 5-hydroxytryptamine receptor 6 (Homo sapiens) (UniProt P50406); test: Binding affinity towards human 5-hydroxytryptamine 6 receptor
Chain of 5-hydroxytryptamine receptor 6 (Homo sapiens) (P50406 whole entry): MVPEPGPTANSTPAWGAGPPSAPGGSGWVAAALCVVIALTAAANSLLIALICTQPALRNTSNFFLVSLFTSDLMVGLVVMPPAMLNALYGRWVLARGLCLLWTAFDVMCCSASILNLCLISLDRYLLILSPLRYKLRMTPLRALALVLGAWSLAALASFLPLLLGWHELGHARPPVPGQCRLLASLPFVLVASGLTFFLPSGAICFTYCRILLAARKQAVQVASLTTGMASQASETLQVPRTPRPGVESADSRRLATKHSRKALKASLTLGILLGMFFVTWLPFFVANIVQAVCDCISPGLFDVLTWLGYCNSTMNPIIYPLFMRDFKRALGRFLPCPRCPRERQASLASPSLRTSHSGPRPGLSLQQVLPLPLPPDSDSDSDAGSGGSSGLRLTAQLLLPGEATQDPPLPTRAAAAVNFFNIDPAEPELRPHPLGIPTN

[3] = biological target: 5-hydroxytryptamine receptor 2A (Homo sapiens) (UniProt P28223); test: Binding affinity towards 5-hydroxytryptamine 2A receptor
Chain of 5-hydroxytryptamine receptor 2A (Homo sapiens) (P28223 whole entry): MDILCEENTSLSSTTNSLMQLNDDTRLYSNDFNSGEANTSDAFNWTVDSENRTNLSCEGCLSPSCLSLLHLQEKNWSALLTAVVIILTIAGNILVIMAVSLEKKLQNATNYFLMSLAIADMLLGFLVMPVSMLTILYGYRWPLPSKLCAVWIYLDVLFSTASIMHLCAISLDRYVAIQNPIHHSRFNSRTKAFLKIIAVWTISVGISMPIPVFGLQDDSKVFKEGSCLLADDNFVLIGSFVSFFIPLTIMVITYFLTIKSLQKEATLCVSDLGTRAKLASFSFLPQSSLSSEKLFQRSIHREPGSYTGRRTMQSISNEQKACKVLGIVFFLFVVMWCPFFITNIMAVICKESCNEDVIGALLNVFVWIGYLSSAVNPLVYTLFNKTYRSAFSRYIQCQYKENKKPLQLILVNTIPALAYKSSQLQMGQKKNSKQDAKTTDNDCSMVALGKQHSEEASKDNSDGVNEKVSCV

[4] = biological target: T2, 5-hydroxytryptamine receptor 1A (Homo sapiens) (UniProt P08908); test: Binding affinity towards 5-hydroxytryptamine 1A receptor
T2 sequence (whole entry): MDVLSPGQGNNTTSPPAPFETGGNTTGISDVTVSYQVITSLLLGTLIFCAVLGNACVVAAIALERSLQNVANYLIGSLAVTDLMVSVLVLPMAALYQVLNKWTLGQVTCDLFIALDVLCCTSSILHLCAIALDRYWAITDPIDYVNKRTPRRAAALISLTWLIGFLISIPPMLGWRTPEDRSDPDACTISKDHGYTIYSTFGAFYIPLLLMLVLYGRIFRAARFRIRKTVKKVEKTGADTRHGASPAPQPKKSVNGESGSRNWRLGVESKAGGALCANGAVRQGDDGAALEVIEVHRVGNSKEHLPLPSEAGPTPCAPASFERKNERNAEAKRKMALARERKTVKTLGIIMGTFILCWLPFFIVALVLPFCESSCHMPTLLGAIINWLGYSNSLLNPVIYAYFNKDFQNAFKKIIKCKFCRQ

[5] = biological target: 5-hydroxytryptamine receptor 7 (Homo sapiens) (UniProt P34969); test: Binding affinity towards 5-hydroxytryptamine 7 receptor
Chain of 5-hydroxytryptamine receptor 7 (Homo sapiens) (P34969 whole entry): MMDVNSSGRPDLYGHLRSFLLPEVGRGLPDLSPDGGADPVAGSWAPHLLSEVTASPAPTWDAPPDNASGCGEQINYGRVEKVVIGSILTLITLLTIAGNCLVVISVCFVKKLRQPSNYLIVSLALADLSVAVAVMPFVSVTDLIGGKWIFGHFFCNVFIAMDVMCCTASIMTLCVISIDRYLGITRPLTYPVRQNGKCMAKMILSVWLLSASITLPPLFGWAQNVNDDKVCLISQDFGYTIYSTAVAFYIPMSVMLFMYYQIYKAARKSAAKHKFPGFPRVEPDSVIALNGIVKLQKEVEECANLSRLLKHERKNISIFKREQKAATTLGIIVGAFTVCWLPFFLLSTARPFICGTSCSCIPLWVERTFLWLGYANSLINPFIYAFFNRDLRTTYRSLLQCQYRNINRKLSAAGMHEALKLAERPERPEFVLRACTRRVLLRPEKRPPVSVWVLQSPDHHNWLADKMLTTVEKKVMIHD

[6] = biological target: 5-hydroxytryptamine receptor 5A (Homo sapiens) (UniProt P47898); test: Binding affinity towards 5-HT5a receptor
Chain of 5-hydroxytryptamine receptor 5A (Homo sapiens) (P47898 whole entry): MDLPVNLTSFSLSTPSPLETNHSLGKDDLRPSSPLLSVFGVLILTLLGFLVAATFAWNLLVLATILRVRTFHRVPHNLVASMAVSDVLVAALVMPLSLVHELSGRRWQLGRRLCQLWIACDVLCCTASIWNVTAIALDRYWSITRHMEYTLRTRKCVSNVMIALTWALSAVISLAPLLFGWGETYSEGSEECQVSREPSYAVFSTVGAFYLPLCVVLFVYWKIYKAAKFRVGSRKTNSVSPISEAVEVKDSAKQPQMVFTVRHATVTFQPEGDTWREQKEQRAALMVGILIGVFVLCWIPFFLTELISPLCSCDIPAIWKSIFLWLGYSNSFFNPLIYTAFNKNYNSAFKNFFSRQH

[7] = biological target: Melanocortin receptor 4 (Homo sapiens) (UniProt P32245); test: Binding affinity towards MCR-4 receptor
Chain of Melanocortin receptor 4 (Homo sapiens) (P32245 whole entry): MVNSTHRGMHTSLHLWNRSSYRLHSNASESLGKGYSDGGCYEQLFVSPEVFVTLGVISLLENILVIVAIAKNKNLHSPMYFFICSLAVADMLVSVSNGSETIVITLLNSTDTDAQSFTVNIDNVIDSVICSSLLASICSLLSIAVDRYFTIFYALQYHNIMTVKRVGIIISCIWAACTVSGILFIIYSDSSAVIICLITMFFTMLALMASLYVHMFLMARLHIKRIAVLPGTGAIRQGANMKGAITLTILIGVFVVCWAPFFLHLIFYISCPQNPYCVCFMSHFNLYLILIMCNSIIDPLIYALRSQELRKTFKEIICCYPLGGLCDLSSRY

[8] = biological target: T3, Substance-K receptor (Homo sapiens) (UniProt P21452); test: Binding affinity towards NK2 receptor
T3 sequence (whole entry): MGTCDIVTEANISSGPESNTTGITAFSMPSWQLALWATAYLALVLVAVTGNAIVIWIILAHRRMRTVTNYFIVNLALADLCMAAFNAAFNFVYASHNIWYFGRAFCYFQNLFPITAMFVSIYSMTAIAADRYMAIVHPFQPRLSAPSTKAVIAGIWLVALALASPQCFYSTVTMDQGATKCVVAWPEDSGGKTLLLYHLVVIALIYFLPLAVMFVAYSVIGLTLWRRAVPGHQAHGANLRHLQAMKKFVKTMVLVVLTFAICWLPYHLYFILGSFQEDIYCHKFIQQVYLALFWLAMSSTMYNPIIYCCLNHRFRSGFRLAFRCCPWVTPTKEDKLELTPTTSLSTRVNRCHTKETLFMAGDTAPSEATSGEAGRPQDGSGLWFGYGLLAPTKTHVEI

[9] = biological target: Substance-P receptor (Homo sapiens) (UniProt P25103); test: Binding affinity towards human NK1 receptor
Chain of Substance-P receptor (Homo sapiens) (P25103 whole entry): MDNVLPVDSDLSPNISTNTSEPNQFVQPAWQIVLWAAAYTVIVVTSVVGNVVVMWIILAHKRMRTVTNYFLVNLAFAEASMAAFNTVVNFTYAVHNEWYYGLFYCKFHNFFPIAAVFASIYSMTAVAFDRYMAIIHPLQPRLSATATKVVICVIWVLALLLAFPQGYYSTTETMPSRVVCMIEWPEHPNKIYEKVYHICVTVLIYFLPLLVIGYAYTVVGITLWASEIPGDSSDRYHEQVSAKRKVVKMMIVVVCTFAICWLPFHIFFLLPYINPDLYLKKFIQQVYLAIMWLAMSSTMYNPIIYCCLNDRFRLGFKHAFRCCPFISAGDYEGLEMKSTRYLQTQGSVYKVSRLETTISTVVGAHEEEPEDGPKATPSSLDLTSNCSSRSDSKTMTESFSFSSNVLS

[10] = biological target: T4, Neuromedin-K receptor (Homo sapiens) (UniProt P29371); test: Binding affinity towards NK3 receptor
T4 sequence (whole entry): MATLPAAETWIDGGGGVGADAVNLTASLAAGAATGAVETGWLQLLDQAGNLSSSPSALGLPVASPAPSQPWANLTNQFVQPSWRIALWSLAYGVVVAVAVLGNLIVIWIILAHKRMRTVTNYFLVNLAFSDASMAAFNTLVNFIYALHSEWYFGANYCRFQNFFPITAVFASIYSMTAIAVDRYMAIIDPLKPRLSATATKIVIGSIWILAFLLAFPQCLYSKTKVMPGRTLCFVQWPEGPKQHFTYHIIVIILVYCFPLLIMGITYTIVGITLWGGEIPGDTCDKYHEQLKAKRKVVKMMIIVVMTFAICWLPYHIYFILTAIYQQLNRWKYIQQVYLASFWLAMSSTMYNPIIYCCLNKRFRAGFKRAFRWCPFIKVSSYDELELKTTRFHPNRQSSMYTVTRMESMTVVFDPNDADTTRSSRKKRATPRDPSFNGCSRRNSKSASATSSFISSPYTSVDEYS

[11] = biological target: T5, Gonadotropin-releasing hormone receptor (Homo sapiens) (UniProt P30968); test: Binding affinity towards GnRH receptor
T5 sequence (whole entry): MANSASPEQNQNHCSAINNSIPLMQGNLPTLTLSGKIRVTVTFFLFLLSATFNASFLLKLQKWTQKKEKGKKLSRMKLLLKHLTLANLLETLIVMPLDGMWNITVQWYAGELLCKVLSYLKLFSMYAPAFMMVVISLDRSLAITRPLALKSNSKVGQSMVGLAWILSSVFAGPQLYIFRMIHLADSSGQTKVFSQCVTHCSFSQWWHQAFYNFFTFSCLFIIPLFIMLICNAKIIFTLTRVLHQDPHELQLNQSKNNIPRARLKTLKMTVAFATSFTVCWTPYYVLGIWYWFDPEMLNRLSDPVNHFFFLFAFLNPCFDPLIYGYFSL

[12] = biological target: T6, Neuropeptide Y receptor type 1 (Homo sapiens) (UniProt P25929); test: Binding affinity towards NPY1 receptor
T6 sequence (whole entry): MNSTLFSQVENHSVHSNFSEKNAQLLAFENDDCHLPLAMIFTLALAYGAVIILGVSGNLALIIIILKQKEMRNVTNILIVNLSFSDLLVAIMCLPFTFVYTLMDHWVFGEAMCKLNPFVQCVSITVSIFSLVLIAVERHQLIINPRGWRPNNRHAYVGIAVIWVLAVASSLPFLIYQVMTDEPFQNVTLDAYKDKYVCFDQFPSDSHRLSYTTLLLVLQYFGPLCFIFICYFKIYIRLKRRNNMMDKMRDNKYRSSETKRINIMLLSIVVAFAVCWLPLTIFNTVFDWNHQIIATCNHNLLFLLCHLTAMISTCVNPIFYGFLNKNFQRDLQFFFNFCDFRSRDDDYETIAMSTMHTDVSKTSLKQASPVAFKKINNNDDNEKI

[13] = biological target: T7, Neuropeptide Y receptor type 5 (Homo sapiens) (UniProt Q15761); test: Binding affinity towards NPY5 receptor
T7 sequence (whole entry): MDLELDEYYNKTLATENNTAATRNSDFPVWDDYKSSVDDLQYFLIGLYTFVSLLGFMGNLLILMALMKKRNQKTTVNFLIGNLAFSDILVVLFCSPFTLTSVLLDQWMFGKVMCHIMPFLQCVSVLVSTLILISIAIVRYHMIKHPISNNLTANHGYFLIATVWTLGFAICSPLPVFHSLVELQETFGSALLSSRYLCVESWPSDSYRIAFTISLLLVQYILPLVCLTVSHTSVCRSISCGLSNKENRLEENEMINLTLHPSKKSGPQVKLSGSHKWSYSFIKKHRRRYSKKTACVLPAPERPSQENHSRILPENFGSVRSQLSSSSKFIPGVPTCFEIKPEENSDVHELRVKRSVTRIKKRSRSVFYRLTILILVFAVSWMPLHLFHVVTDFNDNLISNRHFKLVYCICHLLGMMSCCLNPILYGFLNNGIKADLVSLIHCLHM

[14] = biological target: C-C chemokine receptor type 5 (Homo sapiens) (UniProt P51681); test: Binding affinity towards CCR5 receptor
Chain of C-C chemokine receptor type 5 (Homo sapiens) (P51681 whole entry, looked up): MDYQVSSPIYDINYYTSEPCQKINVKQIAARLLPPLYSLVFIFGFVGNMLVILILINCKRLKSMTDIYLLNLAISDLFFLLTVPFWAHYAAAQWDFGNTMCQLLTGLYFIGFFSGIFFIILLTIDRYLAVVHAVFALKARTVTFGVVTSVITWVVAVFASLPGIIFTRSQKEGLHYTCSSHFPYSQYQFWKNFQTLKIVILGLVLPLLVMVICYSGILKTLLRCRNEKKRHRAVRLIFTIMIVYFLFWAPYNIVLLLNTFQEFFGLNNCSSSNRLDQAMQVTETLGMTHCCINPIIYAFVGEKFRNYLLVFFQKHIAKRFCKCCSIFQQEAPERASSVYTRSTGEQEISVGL

[15] = biological target: C-C chemokine receptor type 2 (Homo sapiens) (UniProt P41597); test: Binding affinity towards CCR2 receptor
Chain of C-C chemokine receptor type 2 (Homo sapiens) (P41597 whole entry, looked up): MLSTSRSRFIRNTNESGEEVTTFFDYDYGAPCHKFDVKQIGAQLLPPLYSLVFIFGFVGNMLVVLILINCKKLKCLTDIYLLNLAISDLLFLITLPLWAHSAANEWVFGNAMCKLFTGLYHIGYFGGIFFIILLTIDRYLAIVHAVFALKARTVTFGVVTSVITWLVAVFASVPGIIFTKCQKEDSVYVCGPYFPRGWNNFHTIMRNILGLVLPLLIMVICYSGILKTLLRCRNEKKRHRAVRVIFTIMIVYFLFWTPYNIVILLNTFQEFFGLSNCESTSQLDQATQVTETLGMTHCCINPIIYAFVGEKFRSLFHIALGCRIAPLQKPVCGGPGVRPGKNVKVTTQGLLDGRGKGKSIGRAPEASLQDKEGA

[16] = biological target: T8, C-X-C chemokine receptor type 3 (Homo sapiens) (UniProt P49682); test: Binding affinity towards CXCR3 receptor
T8 sequence (whole entry): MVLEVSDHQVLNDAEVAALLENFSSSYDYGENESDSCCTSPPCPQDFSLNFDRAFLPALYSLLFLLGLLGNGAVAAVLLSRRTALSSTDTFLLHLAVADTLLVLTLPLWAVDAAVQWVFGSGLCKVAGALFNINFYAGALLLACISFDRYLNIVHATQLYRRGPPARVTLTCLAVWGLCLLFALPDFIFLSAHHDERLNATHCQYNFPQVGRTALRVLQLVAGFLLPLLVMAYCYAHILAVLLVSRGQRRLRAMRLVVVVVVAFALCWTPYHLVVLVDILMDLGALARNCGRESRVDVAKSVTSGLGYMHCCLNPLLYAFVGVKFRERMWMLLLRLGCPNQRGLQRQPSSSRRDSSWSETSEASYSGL

[17] = biological target: T9, C-C chemokine receptor type 1 (Homo sapiens) (UniProt P32246); test: Binding affinity towards CCR1 receptor
T9 sequence (whole entry): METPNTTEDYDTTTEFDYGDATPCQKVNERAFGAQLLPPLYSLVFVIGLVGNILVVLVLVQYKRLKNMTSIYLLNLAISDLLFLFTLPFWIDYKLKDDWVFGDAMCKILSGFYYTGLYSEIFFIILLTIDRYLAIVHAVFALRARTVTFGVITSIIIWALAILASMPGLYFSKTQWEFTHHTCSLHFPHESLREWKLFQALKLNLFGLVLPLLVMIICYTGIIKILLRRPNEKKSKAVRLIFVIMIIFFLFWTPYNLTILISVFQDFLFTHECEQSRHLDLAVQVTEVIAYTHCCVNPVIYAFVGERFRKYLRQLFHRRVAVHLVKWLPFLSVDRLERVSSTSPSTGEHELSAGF

[18] = biological target: C-X-C chemokine receptor type 4 (Homo sapiens) (UniProt P61073); test: Binding affinity towards CXCR4 receptor
Chain of C-X-C chemokine receptor type 4 (Homo sapiens) (P61073 whole entry): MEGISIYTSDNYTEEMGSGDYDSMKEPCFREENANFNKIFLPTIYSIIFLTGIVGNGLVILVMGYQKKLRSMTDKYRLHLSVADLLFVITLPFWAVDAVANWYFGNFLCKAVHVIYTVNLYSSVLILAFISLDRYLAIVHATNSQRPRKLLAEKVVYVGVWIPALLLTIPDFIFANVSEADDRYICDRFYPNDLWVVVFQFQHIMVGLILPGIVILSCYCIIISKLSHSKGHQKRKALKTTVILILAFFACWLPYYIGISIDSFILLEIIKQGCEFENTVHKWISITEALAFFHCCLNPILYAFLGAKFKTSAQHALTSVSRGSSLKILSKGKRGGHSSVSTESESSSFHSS

[19] = biological target: T10, C-C chemokine receptor type 3 (Homo sapiens) (UniProt P51677); test: Binding affinity towards CCR3 receptor
T10 sequence (whole entry): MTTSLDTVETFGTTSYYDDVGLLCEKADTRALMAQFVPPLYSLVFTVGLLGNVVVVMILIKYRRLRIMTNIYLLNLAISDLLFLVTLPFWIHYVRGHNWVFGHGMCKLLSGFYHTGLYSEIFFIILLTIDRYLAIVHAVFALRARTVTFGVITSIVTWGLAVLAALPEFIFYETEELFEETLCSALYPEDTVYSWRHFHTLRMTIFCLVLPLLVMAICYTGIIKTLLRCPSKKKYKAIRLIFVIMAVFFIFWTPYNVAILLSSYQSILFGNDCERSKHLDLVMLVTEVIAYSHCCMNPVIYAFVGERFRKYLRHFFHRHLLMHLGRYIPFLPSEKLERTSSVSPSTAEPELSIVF

SMILES: Cc1ccc2[nH]c(-c3ccc(Br)cc3)c(CCCCCNC3CCCCC3)c2c1
- Activity [7]: 612 nM

SMILES: CCOC(=O)C(C)(C)c1ccc2[nH]c(-c3cc(C)cc(C)c3)c(CCCN3CCC(O)(c4ccccc4)CC3)c2c1
- Activity [11]: 52 nM

SMILES: CN(C)CCCc1c(-c2cccc(Br)c2)[nH]c2ccccc12
- Activity [2]: 0.7 nM
- Activity [4]: > 1 µM
- Activity [5]: 0.3 µM
- Activity [6]: > 1 µM

Further lines, results first:

- Activity [1]: 60 nM
- Activity [2]: 635 nM
- Activity [3]: 10 nM
- Activity [4]: > 1 µM
- Activity [5]: > 1 µM
- Activity [6]: > 1 µM
SMILES: Brc1ccc(-c2[nH]c3cccc(-c4ccccc4)c3c2CCCN2CCCC2)cc1

- Activity [8]: > 10 µM
- Activity [9]: 0.8 nM
- Activity [10]: > 10 µM
SMILES: COc1ccccc1N1CCN(C(=O)CCc2c(-c3ccc(Br)cc3)[nH]c3ccc(C)cc23)CC1

- Activity [12]: > 10 µM
- Activity [13]: 0.8 nM
SMILES: CC(NCCCc1c(-c2cccc(Br)c2)[nH]c2ccccc12)c1ccc(O)cc1 (stereo not drawn)

- Activity [14]: 1190 nM
- Activity [15]: > 10 µM
- Activity [16]: > 10 µM
- Activity [17]: > 10 µM
- Activity [18]: 1520 nM
- Activity [19]: 920 nM
SMILES: Brc1ccc(-c2[nH]c3ccc4ccccc4c3c2CCCNC2CCC(c3ccccc3)C2)cc1 (stereo not drawn)
